In ChEMBL document CHEMBL1681671, “Substrate-controlled chemoselective synthesis and potent cytotoxic activity of novel 5,6,7-triarylpyrido[2,3-d]pyrimidin-4-one derivatives” (Bioorg Med Chem Lett, 2011):
Converted amounts (≈) assume the structure as drawn.

Experiments:
[1] = Cytotoxicity against human SW1116 cells assessed as cell proliferation inhibition rate at 0.1 ug/ml after 24 hrs by MTT assay; assay type: functional; settings: SW 1116, 24 h
[2] = Cytotoxicity against human SW1116 cells assessed as cell proliferation inhibition rate at 1 ug/ml after 24 hrs by MTT assay; assay type: functional; settings: SW 1116, 24 h
[3] = Cytotoxicity against human SW1116 cells assessed as cell proliferation inhibition rate at 10 ug/ml after 24 hrs by MTT assay; assay type: functional; settings: SW 1116, 24 h
SGC-7901 = test: Cytotoxicity against human SGC7901 cells assessed as cell mortality after 20 hrs by MTT assay; assay type: functional, cell-based; settings: SGC-7901, 20 h

Compound	inhibition at 0.1 µg/mL [1]	inhibition at 1 µg/mL [2]	inhibition at 10 µg/mL [3]	IC50 (SGC-7901)
Nc1nc2c(c(=O)[nH]1)C(c1ccc(F)cc1)C(c1ccccc1)=C(c1ccccc1)N2 (stereo unspecified)	31.6%	17.6%	50.3%	13 µg/mL (≈ 31.8 µM)
Nc1nc2c(c(=O)[nH]1)C(c1ccc(Br)cc1)C(c1ccccc1)=C(c1ccccc1)N2 (stereo unspecified)	19.8%	19.3%	12%	0.074 µg/mL (≈ 0.157 µM)
Nc1nc2c(c(=O)[nH]1)C(c1ccc(Cl)cc1)C(c1ccccc1)=C(c1ccccc1)N2 (stereo unspecified)	14.9%	25.1%	25.5%	0.104 µg/mL (≈ 0.244 µM)
COc1ccc(C2C(c3ccccc3)=C(c3ccccc3)Nc3nc(N)[nH]c(=O)c32)cc1 (stereo unspecified)	43%	29.1%	42.8%	0.341 µg/mL (≈ 0.807 µM)
CN(C)c1ccc(C2C(c3ccccc3)=C(c3ccccc3)Nc3nc(N)[nH]c(=O)c32)cc1 (stereo unspecified)	20.5%	27.9%	14%	0.79 µg/mL (≈ 1.81 µM)
Nc1nc2c(c(=O)[nH]1)C(c1ccc3c(c1)OCO3)C(c1ccccc1)=C(c1ccccc1)N2 (stereo unspecified)	15.1%	34.6%	20.6%	0.09 µg/mL (≈ 0.206 µM)
Nc1nc2c(c(=O)[nH]1)C(c1cccs1)C(c1ccccc1)=C(c1ccccc1)N2 (stereo unspecified)	22.4%	37.2%	48.3%	0.108 µg/mL (≈ 0.271 µM)
COc1ccccc1[C@@H]1c2c(nc(N)[nH]c2=O)N=C(c2ccccc2)[C@H]1c1ccccc1 (racemic)	22.4%	6.47%	31.6%	0.359 µg/mL (≈ 0.85 µM)
COc1ccc([C@@H]2c3c(nc(N)[nH]c3=O)N=C(c3ccccc3)[C@H]2c2ccccc2)cc1OC (racemic)	2.24%	13.8%	23.9%	0.606 µg/mL (≈ 1.34 µM)
COc1cc([C@@H]2c3c(nc(N)[nH]c3=O)N=C(c3ccccc3)[C@H]2c2ccccc2)cc(OC)c1OC (racemic)	21.8%	16.7%	36.9%	2.98 µg/mL (≈ 6.17 µM)
Nc1nc2c(c(=O)[nH]1)[C@@H](c1ccccc1Cl)[C@H](c1ccccc1)C(c1ccccc1)=N2 (racemic)	31.8%	27.3%	38.7%	1.56 µg/mL (≈ 3.67 µM)
COc1cccc2c1C(=O)c1c(O)c3c(c(O)c1C2=O)C[C@@](O)(C(=O)CO)C[C@@H]3O[C@H]1C[C@H](N)[C@H](O)[C@H](C)O1.Cl [DOXORUBICIN HYDROCHLORIDE]	–	–	28.5%	0.078 µg/mL
